One block for each compound: values may come before it.
Key:
[1] = target: T1, AF9-DOT1L interaction (Homo sapiens, UniProt P42568); experiment: Alpha assay, AF9 AHD-DOT1L peptide interaction; format: binding; conditions: for IC50: read-out: IC50, inhibition of AF9-DOT1L interaction
T1 construct: cDNA for human AF9 AHD domain (475-568) and ENL AHD domain (489-559) was synthesized; made in house; host or cells: E. coli BL21(DE3)
T1 sequence (P42568 475-568): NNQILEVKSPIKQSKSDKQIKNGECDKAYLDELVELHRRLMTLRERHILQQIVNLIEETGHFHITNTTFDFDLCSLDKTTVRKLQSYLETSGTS
Excerpt: We developed an Alpha (amplified luminescent proximity homogeneous assay) assay to determine the binding and inhibition of the PPI between maltose-binding protein (MBP)-tagged AF9 AHD and a biotin-labeled DOT1L peptide, using AlphaLisa streptavidin donor beads and anti-MBP acceptor beads. Laser excitation to the donor beads generates singlet oxygen radicals, which can travel for <200 nm in solution and cannot reach the free acceptor beads. The PPI brings the DOT1L coated donor beads and AHD coated acceptor beads together, allowing the radicals to activate the acceptor beads and produce luminescence. […] We also developed a fluorescence polarization (FP) assay. A fluorescein-labeled DOT1L peptide has a higher freedom in solution with a lower polarization value.
Alpha assays. Alpha assays were developed using Perkin-Elmer AlphaLisa anti-MBP kit, which contains streptavidin donor beads and anti-MBP acceptor beads. The assay was performed using a MBP-protein (5 nM), a biotinylated peptide (40 nM), and increasing concentrations of a compound in 25 µL buffer (PBS with 0.5 % BSA, pH 7.5) in 384-well plates according to the manufacturer's protocol and measured with a Tecan SPARK microplate reader. Data were imported into Prism (version 5.0), and IC50 values from 3 independent experiments with standard deviation were obtained by using a standard dose-response curve fitting.

[2] = target: T2, AF9 AHD bound to DOT1L-coated beads (Homo sapiens, UniProt P42568); experiment: Western blot based pull-down assay; format: binding; conditions: increasing concentrations
T2 construct: cDNA for human AF9 AHD domain (475-568) and ENL AHD domain (489-559) was synthesized; made in house; host or cells: E. coli BL21(DE3)
Method: A non-optical pull-down assay was used to further validate compound 1. DOT1L-coated beads were incubated with AF9 AHD in the presence of increasing concentrations of 1.
Western blot based pull-down assay. Biotinylated DOT1L peptide (0.25 mg/mL) was incubated with streptavidin agarose beads in PBS containing 0.1% Triton X-100 (400 µL) for 3h to yield, after washing, DOT1L-coated beads. MBP-AF9 AHD (0.2 µM, 40 µL) was pre-incubated with a compound for 30 min before adding to the beads. After 6 hours incubation at 4 °C, the beads were collected, thoroughly washed, and subjected to SDS-PAGE and analyzed by Western blot using an MBP Mouse mAb (#2396, Cell signaling).

[3] = system: THP-1 cells; experiment: Antiproliferation assay (XTT); format: cell-based; conditions: Homo sapiens, 168 h, 7-day incubation, read-out: Cytotoxicity EC50
Method: (§1) Antiproliferation assay. Proliferation inhibition assays for suspension blood cancer cells were performed using an XTT assay kit (Roche). Proliferation inhibition assays for solid tumor cell lines MCF-7, MDA-MB-231, Panc1, Panc28 were performed using an MTT assay (Sigma). The antiproliferation EC50 values were determined using Prism 5 and the reported results were the mean values of at least three independent experiments. The incubation time for compound 1 was 7 days and that for EPZ4777 was 14 days.

[4] = system: Molm-13 cells; experiment: Antiproliferation assay (XTT); format: cell-based; conditions: Homo sapiens, 168 h, 7-day incubation, read-out: Cytotoxicity EC50
Method: as §1

[5] = system: MV4;11 cells; experiment: Antiproliferation assay (XTT); format: cell-based; conditions: Homo sapiens, 168 h, 7-day incubation, read-out: Cytotoxicity EC50
Method: as §1

[6] = system: Jurkat cells; experiment: Antiproliferation assay (XTT); format: cell-based; conditions: Homo sapiens, 168 h, 7-day incubation, read-out: Cytotoxicity EC50
Method: as §1

[7] = system: Kasumi-1 cells; experiment: Antiproliferation assay (XTT); format: cell-based; conditions: Homo sapiens, 168 h, 7-day incubation, read-out: Cytotoxicity EC50
Method: as §1

[8] = system: HL60 cells; experiment: Antiproliferation assay (XTT); format: cell-based; conditions: Homo sapiens, HL-60, 168 h, 7-day incubation, read-out: Cytotoxicity EC50
Method: as §1

[9] = system: U266 cells; experiment: Antiproliferation assay (XTT); format: cell-based; conditions: Homo sapiens, U-266, 168 h, 7-day incubation, read-out: Cytotoxicity EC50
Method: as §1

[10] = system: RPMI-8226 cells; experiment: Antiproliferation assay (XTT); format: cell-based; conditions: Homo sapiens, 168 h, 7-day incubation, read-out: Cytotoxicity EC50
Method: as §1

[11] = system: MCF-7 cells; experiment: Antiproliferation assay (MTT); format: cell-based; conditions: Homo sapiens, MCF7, 168 h, 7-day incubation, read-out: Cytotoxicity EC50
Method: as §1

[12] = system: MDA-MB-231 cells; experiment: Antiproliferation assay (MTT); format: cell-based; conditions: Homo sapiens, 168 h, 7-day incubation, read-out: Cytotoxicity EC50
Method: as §1

[13] = system: Panc-28 cells; experiment: Antiproliferation assay (MTT); format: cell-based; conditions: 168 h, 7-day incubation, read-out: Cytotoxicity EC50
Method: as §1

[14] = system: Panc-1 cells; experiment: Antiproliferation assay (MTT); format: cell-based; conditions: Homo sapiens, 168 h, 7-day incubation, read-out: Cytotoxicity EC50
Method: as §1

[15] = system: HoxA9, Meis1 and Myc expression in Molm-13 cells; experiment: qPCR of MLL target genes; format: cell-based; conditions: 4 days
Method: (§2) Next, compound 1 was tested for its ability to change expression of characteristic MLL-r leukemia genes HoxA9, Meis1 and Myc. Myc is also overexpressed in a broad range of AML and other cancers. […] (Figure S5), presumably because SEC is not recruited there.
(§3) RNA extraction and Quantitative real-time PCR (qPCR). 10^5 cells/ml were incubated with a compound for 4 days and the RNA was extracted using RNeasy mini kit (#74104, Qiagen). 100-1000 ng of total RNA was reverse transcribed using iScript™ Reverse Transcription Supermix (Bio-Rad) using the manufacturer's protocol. Quantitative real-time PCR was carried out using Fast SYBR Green Master Mix (Applied Biosystems) according to the manufacturer's instructions. Measurements were performed in triplicate, using GAPDH as the reference gene. Real-time PCR was performed using Biosystems Step One Plus detection system. The following sequences of primers are used: […]

[16] = system: HoxA9, Meis1 and Myc expression in MV4;11 cells; experiment: qPCR of MLL target genes; format: cell-based; conditions: 4 days
Method: as §2, §3

[17] = system: cancer cells; experiment: Antiproliferation assays, cancer cell panel; format: cell-based; conditions: all cancer cells tested; read-out: EC50 against proliferation
Method: The differential antiproliferation activities of compound 1 is consistent with its ability to suppress DOT1L/H3K79 methylation and SEC regulated gene expression, which are critical to MLL-r leukemia and Myc-driven blood cancer, but largely dispensable to other solid tumor cells.
as §1

SMILES: CC(C)c1nc(C(=O)NC2CCNCC2)cn1-c1ccc(C(C)(C)C)cc1 [Compound 5]
- IC50 [1]: 7.8 µM

SMILES: CC(C)(C)c1ccc(-n2cc(C(=O)Nc3ccncc3)nc2-c2ccccc2)cc1 [Compound 7]
- IC50 [1]: 22.7 µM

SMILES: CC(C)(C)c1ccc(-n2cc(C(=O)NC3CCNCC3)nc2C2CCCCC2)cc1 [Compound 4]
- IC50 [1]: 24.8 µM

SMILES: O=C(NC1CCNCC1)c1cn(-c2ccc(-c3cn[nH]c3)cc2)c(-c2ccccc2)n1 [Compound 3]
- Beads-bound AF9 AHD in pull-down (Western blot) [2]: cannot
- EC50 [3]: > 50 µM
- EC50 [4]: > 50 µM
- EC50 [5]: > 50 µM
- EC50 [6]: > 50 µM
- EC50 [7]: > 50 µM
- EC50 [8]: > 50 µM
- EC50 [9]: > 50 µM
- EC50 [10]: > 50 µM
- IC50 [1]: > 50 µM
- EC50 [11]: > 50 µM
- EC50 [12]: > 50 µM
- EC50 [13]: > 50 µM
- EC50 [14]: > 50 µM
- Expression of MLL target genes HoxA9, Meis1 and Myc [15]: had no activity
- Expression of MLL target genes HoxA9, Meis1 and Myc [16]: had no activity
- EC50 [17]: > 50 µM

Continued, values first:

- IC50 [1]: 29.2 µM
SMILES: CC(C)(C)c1ccc(-n2cc(C(=O)NCC3CCNCC3)nc2-c2ccccc2)cc1 [Compound 8]

- IC50, inhibition of AF9-DOT1L interaction [1]: inactive
- IC50 [1]: > 50 µM
SMILES: CC(C)(C)c1ccc(-n2cc(C(=O)Nc3ccc(Cl)c(F)c3)nc2-c2ccccc2)cc1 [Compound 9]
